Here are results for ten compounds from patent US20200315232A1, “Method to Improve Dispersibility of a Material Having Low Solubility in Water” (PepsiCo, Inc., priority 2012, published 2020).

Residues, ends and D or L forms follow the SMILES beside them.

For series [1] the following is noted: cited from earlier work; for Sweetness potency: commonly accepted potency figures, weight basis.
For series [2] the following is noted: cited from earlier work.
The format of series [3] is physicochemical. The text has this:
Traditionally, the beverage industry makes certain carbonated beverages by first making concentrated syrup and then diluting the syrup with water at the time and place of making the beverage. The dilution ratio in such beverages is often 1:5; meaning one part syrup is mixed with five parts water. The beverage often is carbonated at the time of being bottled or otherwise packaged. For any ingredient to be incorporated into such a 1:5 syrup, the solubility of the ingredient in the syrup must be at least six times higher than its desired concentration in the finished beverage. […] It would be advantageous, therefore, to develop improved methods of incorporating rebaudioside D into an aqueous solution.

With `C[C@H](CC[C@@H](O[C@@H]1O[C@H](CO[C@@H]2O[C@H](CO)[C@@H](O)[C@H](O)[C@H]2O)[C@@H](O)[C@H](O)[C@H]1O[C@@H]1O[C@H](CO)[C@@H](O)[C@H](O)[C@H]1O)C(C)(C)O)[C@H]1CC[C@@]2(C)[C@@H]3CC=C4[C@@H](CC[C@H](O[C@@H]5O[C@H](CO[C@@H]6O[C@H](CO)[C@@H](O)[C@H](O)[C@H]6O)[C@@H](O)[C@H](O)[C@H]5O)C4(C)C)[C@]3(C)[C@H](O)C[C@]12C` [Mogroside V], the Sweetness potency in series [1] is 100-300 times as sweet as sugar.

For `O=C1NS(=O)(=O)c2ccccc21` [Saccharine], in series [1], the Sweetness potency is on record as 300 times as sweet as sugar.

As to `C=C1C[C@@]23CC[C@H]4[C@@](C)(CCC[C@@]4(C)C(=O)O[C@@H]4O[C@H](CO)[C@@H](O)[C@H](O)[C@H]4O)[C@@H]2CC[C@]1(O[C@@H]1O[C@H](CO)[C@@H](O)[C@H](O[C@@H]2O[C@H](CO)[C@@H](O)[C@H](O)[C@H]2O)[C@H]1O[C@@H]1O[C@H](CO)[C@@H](O)[C@H](O)[C@H]1O)C3` [Rebaudioside A, rebaudioside A], in series [1] (background statement), the “Sweetness relative to sucrose” value was “approximately 200 times sweeter than sucrose”. Further, the Sweetness potency in series [1] is reported as 150-300 times as sweet as sugar. For the same compound, the “Solubility in aqueous solution” value in series [2] (room temperature) was “at least 3000 ppm”. The “Water solubility (in words)” value in series [2] was “more soluble than stevioside”.

Turning to `CC1=CC(=O)[N-]S(=O)(=O)O1.[K+]` [Acesulfame-K], the Sweetness potency in series [1] was 200 times as sweet as sugar.

Regarding `C=C1C[C@@]23CC[C@H]4[C@@](C)(CCC[C@@]4(C)C(=O)O[C@@H]4O[C@H](CO)[C@@H](O)[C@H](O)[C@H]4O)[C@@H]2CC[C@]1(O[C@@H]1O[C@H](CO)[C@@H](O)[C@H](O)[C@H]1O[C@@H]1O[C@H](CO)[C@@H](O)[C@H](O)[C@H]1O)C3` [Stevioside, stevioside], the Sweetness potency in series [1] is recorded as 100-250 times as sweet as sugar. Besides, the “Water solubility (in words)” value in series [2] was “only sparingly soluble in water”.

`COC(=O)[C@H](Cc1ccccc1)NC(=O)[C@@H](N)CC(=O)O` [Aspertame] (H-Asp-Phe-OMe): in series [1], the Sweetness potency is 200 times as sweet as sugar.

`COc1ccc(CCC(=O)c2c(O)cc(O[C@@H]3O[C@H](CO)[C@@H](O)[C@H](O)[C@H]3O[C@@H]3O[C@@H](C)[C@H](O)[C@@H](O)[C@H]3O)cc2O)cc1O` [Neohesperidin dihydrochalcone]: the Sweetness potency in series [1] is recorded as 300 times as sweet as sugar.

As for `OC[C@H]1O[C@H](O[C@]2(CCl)O[C@H](CCl)[C@@H](O)[C@@H]2O)[C@H](O)[C@@H](O)[C@H]1Cl` [Sucralose], the Sweetness potency in series [1] was 600 times as sweet as sugar.

For the compound `COC(=O)[C@H](Cc1ccccc1)NC(=O)[C@H](CC(=O)O)NCCC(C)(C)C` [Neotame], in series [1], the Sweetness potency is on record as 8,000 times as sweet as sugar.

`C=C1C[C@@]23CC[C@H]4[C@@](C)(CCC[C@@]4(C)C(=O)O[C@@H]4O[C@H](CO)[C@@H](O)[C@H](O)[C@H]4O[C@@H]4O[C@H](CO)[C@@H](O)[C@H](O)[C@H]4O)[C@@H]2CC[C@]1(O[C@@H]1O[C@H](CO)[C@@H](O)[C@H](O[C@@H]2O[C@H](CO)[C@@H](O)[C@H](O)[C@H]2O)[C@H]1O[C@@H]1O[C@H](CO)[C@@H](O)[C@H](O)[C@H]1O)C3` [Rebaudioside D, rebaudioside D]: in series [1], the Sweetness potency is 180-200 times as sweet as sugar. Further, in series [3], the “Stable solubility in aqueous solution” value is on record as “no more than 450 ppm”. For the same compound, in series [2], the “Water solubility (in words)” value was “low”.
